Where no end group is shown, it is not given here.
Columns and labels:
[1] = tested on: endothelin-induced depilation spot; assay: Concurrent administration of endothelin inhibitor on the endothelin-induced formation of depilation spot; assay type: in vivo, guinea pig; details: 10 days after the administration; endothelin-1 0.3 μg, PD142893 10 μg, intracutaneous
Method: As described in Example 1, endothelin (0.3 μg) was intracutaneously administered to the dorsal part of each guinea pig, and PD142893 (10 μg) as an endothelin inhibitor was also administered concurrently.
The size of a depilation spot formed 10 days after the administration was determined in terms of a product of its long diameter and short diameter.

[2] = tested on: growth-phase hair follicles; assay: Growth-phase hair follicle inhibitory effects of endothelin, count of hair shafts; assay type: in vivo, guinea pig; details: 1 μg intracutaneously, 50 μL/site, fifth day after the administration
Method: Solutions (1 μg, each) of endothelin-1, endothelin-2 and endotherin-3 in aliquots of phosphate buffer solution (PBS), which contained 0.1% of bovine serum albumin (BSA), were intracutaneously administered (at 50 μL/site) to the dorsal parts of guinea pigs, respectively, from which hair had been cut off by a hair clipper. Three days after the administration, hair was again cut off by a hair clipper from the administered sites. Two days after the cutting, the numbers of hair shafts grown per unit area at the administered sites were counted.

[3] = tested on: C3H/HeNCrj mouse; assay: Hair growth test in mice; assay type: in vivo; details: 0.5 mg in 2.5 mL PEG 400/PEG 3350 (95/5), 25 μL/application once a day over 2 weeks, applied to depilated dorsal skin
Method: Endothelin-1 (0.5 mg) was dissolved in a mixed solution (2.5 mL) of polyethylene glycol 400 (average molecular weight: 400) and polyethylene glycol 3350 (average molecular weight: 3,350) (mixing ratio: 95/5) to prepare a hair growth inhibitor. Dorsal hair of each 8-week old C3H/HeNCrj mouse was removed with a depilatory cream (over an area of 2×4 cm^2), and the hair growth inhibitor was applied to the depilated site once a day at a dose of 25 μL/application over 2 weeks. A group in which only the solvent was similarly applied was employed as a control group. To observe regrowth of hair, the above-described depilated site on day 14 after the depilation was photographed at a predetermined fixed magnification, and the percentage of a regrown hair area (regrown hair area/depilated area×100) was determined using an image analyzer.

[4] = tested on: hair follicle organs in growth phase from a human scalp tissue; assay: Growth inhibitory effects on organ-cultured hair follicles; assay type: cell-based
Method: From a human scalp tissue, hair follicle organs in growth phase were surgically isolated under a stereomicroscope. Following a conventional procedure [Philpott M. P., et al., J. Cell Sci., 97, 463-471 (1990)], the isolated hair follicles were subjected to organ culture. Described specifically, endothelin-1 was added to William's E medium which contained L-glutamine (2 mM), hydrocortisone (10 ng/mL), insulin (10 μg/mL), sodium selenite (10 ng/mL) and transferrin (10 μg/mL).

[5] = tested on: dorsal part of a guinea pig; assay: Depilation inducing effects of endothelin, intracutaneous administration; assay type: in vivo; details: 0.3 μg intracutaneously, 50 μL/site, 10 days after the administration
Method: (§1) A solution of endothelin-1 (0.3 μg) in phosphate buffer solution (PBS), which contained 0.1% of bovine serum albumin (BSA), was intracutaneously administered (at 50 μL/site) to the dorsal part of a guinea pig.

[6] = tested on: growth-phase hair follicle; assay: Structural changes of hair follicle structure by the administration of endothelin, hematoxylin-eosin staining; assay type: in vivo, guinea pig; details: 0.3 μg intracutaneously
Method: as §1, with “1.1%” for “0.1%”, “pig. After that, samples were collected day after day from the administered dorsal skin, and tissue samples were prepared by hematoxylin-eosin staining.” for “pig.”

Compound	Product of long diameter and short diameter of depilation spot (mean ± S.D., N = 6) [1]	number of hair shafts grown per unit area at the administered site [2]	Percentage of regrown hair area on day 14 after depilation [3]	percent regression of growth-phase hair follicles ([4]; 10 ng/mL added endothelin, Day 1 of incubation)	percent regression of growth-phase hair follicles ([4]; 10 ng/mL added endothelin, Day 2 of incubation)	percent regression of growth-phase hair follicles ([4]; 10 ng/mL added endothelin, Day 4 of incubation)	percent regression of growth-phase hair follicles ([4]; 10 ng/mL added endothelin, Day 6 of incubation)	percent regression of growth-phase hair follicles ([4]; 100 ng/mL added endothelin, Day 1 of incubation)	percent regression of growth-phase hair follicles ([4]; 100 ng/mL added endothelin, Day 2 of incubation)	percent regression of growth-phase hair follicles ([4]; 100 ng/mL added endothelin, Day 4 of incubation)	percent regression of growth-phase hair follicles ([4]; 100 ng/mL added endothelin, Day 6 of incubation)	grown hair follicle lengths compared with control group ([4]; day 4 of incubation and the subsequent days (FIG. 3))	structural change of incubated hair follicles ([4]; during the incubation period (FIG. 4))	observation at the administered site (depilation) [5]	histological image of hair follicle ([6]; 1st day after the administration)	histological image of hair follicle ([6]; 3rd day after the administration)
CC[C@H](C)[C@H](NC(=O)[C@H](CC(=O)O)NC(=O)[C@H](CC(C)C)NC(=O)[C@H](Cc1c[nH]cn1)NC(=O)[C@@H]1CSSC[C@H](N)C(=O)N[C@@H](CO)C(=O)N[C@H]2CSSC[C@H](NC(=O)[C@H](CCC(=O)O)NC(=O)[C@H](CCCCN)NC(=O)[C@H](CC(=O)O)NC(=O)[C@H](CCSC)NC(=O)[C@H](CC(C)C)NC(=O)[C@H](CO)NC(=O)[C@H](CO)NC2=O)C(=O)N[C@@H](C(C)C)C(=O)N[C@@H](Cc2ccc(O)cc2)C(=O)N[C@@H](Cc2ccccc2)C(=O)N1)C(=O)N[C@H](C(=O)N[C@@H](Cc1c[nH]c2ccccc12)C(=O)O)[C@@H](C)CC [Endothelin-1, endothelin-1]	81.47 ± 6.53 mm^2	significant (p<0.01) decrease in the number of hair shafts	2.22%	0.0%	0.0%	17.6%	35.3%	0.0%	0.0%	23.5%	41.2%	significant hair growth inhibitory effects	structural change of the endothelin-treated, growth-phase hair follicles into those similar to resting-phase hair follicles	hair shaft falling-off and formation of a marked depilation spot	regressed image of a growth-phase hair follicle	image of a follicular tissue in transition phase
endothelin-2 (CSCSSWLDKECVYFCHLDIIW; ends and bridges not checked; cysteine pairing not given here; UniProt P20800 49-69, looked up) [peptide composed of 21 amino acid residues; isoform of endothelin]	–	significant (p<0.01) decrease in the number of hair shafts	–	–	–	–	–	–	–	–	–	–	–	–	–	–
endothelin-3 (CTCFTYKDKECVYYCHLDIIW; ends and bridges not checked; cysteine pairing not given here; UniProt P14138 97-117, looked up) [endotherin-3, peptide composed of 21 amino acid residues; isoform of endothelin]	–	significant (p<0.01) decrease in the number of hair shafts	–	–	–	–	–	–	–	–	–	–	–	–	–	–

From patent US7468421B2, “Depilatories and agents for external use” (Kao Corporation, priority 1999, dated 2008)
